The values below come from patent US20090130033A1, “Dendrimer-Aminobuadiene-Based Uv Screens” (priority 2004, published 2009).

The nature of this data set: Absorption maximum of aminobutadienes in methanol (or ethanol). The class given is physicochemical. The conditions noted are these: in methanol (or ethanol when not soluble in methanol). The source says: The aminobutadiene according to the present invention has the general formula (I) disclosed above. A preferred class of aminobutadienes is that in which R3 represents —COOH, —COOR5, —COR5 or SO2R5 and R4 represents a carboxyl group, —COOR6, —COR6 or —SO2R6, wherein R1, R2, R5 and R6 have the meanings indicated above. Examples of aminobutadienes according to the general formula (I) are for example disclosed in U.S. Pat. No. 4,195,999. Table 1 lists a number of aminobutadienes according to the present invention which can be coupled to an amine rich polymer, including their absorption maxima in methanol (or ethanol when not soluble in methanol).

`CCCCC(CC)COC(=O)/C(=C\C=C\N1CCCCC1)C(C)=O` (stereo not shown) [2.3]: the Absorption maximum turned out to be 395 nm.
